Here are results for five molecules from patent US7612034B2, “Treatment of subnormal bone mineral density” (Genelabs Technologies, Inc., priority 1999, dated 2009).

Data set [1] concerns Postmenopausal women with osteoporosis. The settings on record: cited from earlier work.
Data set [2] has as its system postmenopausal women with low bone mass. The settings on record: cited from earlier work.
For data set [3], the system named is spine bone mineral density (BMD). The settings on record: analysis of 16 studies; chronic calcitonin treatment; cited from earlier work.
Data set [4] is described as follows: Stability of DHEA polymorph preparations under ambient conditions. The class given is physicochemical.
The nature of data set [5]: Oral uptake and absorption of DHEA polymorph preparations. The settings on record: oral administration.
The next data set relates to ovarectomized rats. The settings on record: administration of DHEA to ovarectomized rats; cited from earlier work.
Data set [6] has as its system systemic lupus erythematous (SLE) patients. The experiment in a line: Clinical trial data, SLE patients treated with DHEA, BMD. The settings on record: DHEA 200 mg daily, alone or in combination with prednisone. The class given is in vivo, human. From the text: Its role in fetal physiology is poorly understood, but it is thought to serve as a precursor for other steroids, leading to androgen and estrogenic steroids. […] However, the administration of DHEA to humans to prevent bone loss or increase bone density is not a recognized treatment for osteoporosis/osteopenia by the medical community.

Consider `NCCCC(O)(P(=O)(O)O)P(=O)(O)O` [alendronate], for which the “increases in BMD compared with calcitonin” value in data set [1] (alendronate 10 mg, LS and HT at 6 and 12 months (p<0.001), FN at 12 months (p=0.001)) is listed as “significantly greater increases in BMD than did calcitonin”; in data set [2] (alendronate 10 mg, LS and HT at 6 and 12 months (p<0.001), FN at 12 months (p=0.003)), “significantly greater increases in BMD than did calcitonin”.

calcitonin: in data set [1] (calcitonin 200 IU daily, FN at 6 (p=0.003) and 12 months (p=0.008)), the “BMD changes compared with placebo at FN” value is “statistically different from placebo”. For the same molecule, in data set [1] (calcitonin 200 IU daily, LS or HT at 6 or 12 months), the “BMD changes compared with placebo at LS or HT” value is given as “not significantly different”. In addition, the “BMD changes compared with placebo” value in data set [2] (calcitonin 200 IU daily, LS, HT or FN at 6 or 12 months) is “not statistically different from placebo”. The “increases in BMD in total femur and lumbar spine” value in data set [2] (up to 1 year of therapy, calcitonin 200 IU daily) is “only modest increases in BMD”. In addition, the “mean increase in spine bone mineral density (BMD)” value in data set [3] is given as 1.97%.

For the molecule `C[C@]12CC[C@H](O)CC1=CC[C@@H]1[C@@H]2CC[C@]2(C)C(=O)CC[C@@H]12` [DHEA form I, dehydroepiandrosterone], in data set [4], the stability entry was “highly stable under ambient conditions”.

Regarding `C[C@]12CC[C@H](O)CC1=CC[C@@H]1[C@@H]2CC[C@]2(C)C(=O)CC[C@@H]12` [DHEA form II, dehydroepiandrosterone], the rate of absorption entry in data set [5] was “rapid rate of absorption (greater than the form I polymorph)”. Besides, the stability entry in data set [4] is recorded as “stable under ambient conditions”.

For the molecule `C[C@]12CC[C@H](O)CC1=CC[C@@H]1[C@@H]2CC[C@]2(C)C(=O)CC[C@@H]12` [DHEA, dehydroepiandrosterone], the bone density result in the data set with ovarectomized rats was “increased bone density”. The “improvement of BMD” value in data set [6] was “only slight improvement of BMD”.
